Consider one molecule from patent publication US20240247266A1, “METHODS AND COMPOSITIONS FOR TREATING AN ANGIOTENSINOGEN- (AGT-) ASSOCIATED DISORDER” (Alnylam Pharmaceuticals, Inc., priority 2021, published 2024).

Common to all, as to format: in vivo, human
The test system of data set [1] is serum AGT. As to the kind of experiment: Example 5 (Part E, irbesartan co-administration): serum AGT. Particulars: add-on 300 mg orally daily after 800 mg AD-85481. The procedure: (§1) In a multicenter, randomized, double-blinded, placebo-controlled, single ascending fixed dose study to assess the safety and efficacy of AD-85481 (Zilebesiran) after a single fixed dose administration to subjects having hypertension (ClinicalTrials.gov Identifier: NCT03934307, Part A), a sub-study was performed to assess the safety and tolerability of AD-85481 (Zilebesiran) in hypertensive patients during irbesartan co-administration (NCT03934307, Part E). Briefly, all patients received an open-label single 800 mg fixed dose of AD-85481 by subcutaneous administration on Day 1. On Day 41, patients with a 24-hr mean systolic blood pressure (SBP)≥120 mmHg (N=10) proceeded to receive irbesartan (300 mg oral) once daily from Day 43 to Day 57 for 14 days (FIG. 10).
(§2) The safety and tolerability, change from baseline in serum AGT, and plasma and urine pharmacokinetic parameters were evaluated. Change from baseline in blood pressure was also assessed by 24-hour ABPM.

Data set [2] concerns patients with hypertension. As to the kind of experiment: Example 5: blood pressure by 24 hour ABPM with irbesartan add-on. The conditions noted are these: daily add-on for 2 weeks to zilebesiran 800 mg, Day 43-57. As for the experimental part: as §1, with “10). The safety and tolerability, change from baseline in serum AGT, and plasma and urine pharmacokinetic parameters were evaluated. Change from baseline in blood pressure was also assessed by 24-hour ABPM. Assessments of AD-85481 also included change from baseline in SBP and DBP determined by 24 hour ambulatory blood pressure monitoring (ABPM).” for “10).”

Data set [3] deals with patients with hypertension. As to the kind of experiment: Example 5: safety and tolerability during irbesartan co-administration. The conditions noted are these: add-on treatment with zilebesiran. As for the experimental part: as §1, §2
Safety was reported from the start of the study to Day 85. […] There was one mild SAE of acute anemia in the irbesartan add-on group, but was considered not related to study drug, which was a complication of esophagogastroduodenoscopy with biopsy performed during screening prior to dose of zilebesiran.

On to `CCCCC1=NC2(CCCC2)C(=O)N1Cc1ccc(-c2ccccc2-c2nnn[nH]2)cc1` [irbesartan], for which, in data set [1], the “effect on serum AGT levels” value is reported as “no additional effect”. In addition, in data set [2], the “effect on systolic and diastolic BP (in words)” value is “further reduced systolic and diastolic BP”. The “changes in creatinine or potassium” value in data set [3] was “without clinically significant changes in creatinine or potassium”.
